Experimental data reported in patent US20240409536A1, “COMPOUNDS AND METHODS FOR MODULATING SPLICING” (REMIX THERAPEUTICS INC., priority 2021, published 2024).
pIC50: −log10 of the molar value. Counter-ions that a name gives are not always drawn.

What was measured:
MYB mRNA = experiment: Splicing RT-qPCR assay, MYB canonical (CJ) and alternative (AJ) junction mRNA; assay type: cell-based; conditions: Homo sapiens, A673 or K562 cells, 24 hours; for pIC50: decrease in canonical junction mRNA; for AC50: increase in alternative junction mRNA
Summary of the method: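 A673 or K562 cells were treated 24 h at 37 °C with compounds in an 11-point 3-fold dilution series (top final 10 uM, DMSO ≤0.25%). Lysates were analysed by one-step RT-qPCR for canonical (CJ) and alternative-exon (AJ) junction isoforms, normalized to GAPDH, GUSB or PPIA.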

Target C = experiment: HiBiT protein abundance assay, Target C (K562 HiBiT knock-in cells); assay type: cell-based, human; conditions: 24 hours
Summary of the method: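 K562 knock-in cells (10000/well, IMDM+1% FBS) treated 24 h at 37 °C with 10-point 3-fold dilutions, top final 10 μM, DMSO ≤0.25%. HiBiT lytic luminescence read; response normalized to unmodified K562 and DMSO-treated controls. IC50 interpolated at 50% abundance by four-parameter logistic fit.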

HiBiT-tagged MYB protein = experiment: HiBiT protein abundance assay, MYB (K562 HiBiT knock-in cells); assay type: cell-based, human; conditions: 24 hours
Summary of the method: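 K562 cells with endogenous HiBiT knock-in tag, 10-point 3-fold dilutions (top 10 μM final, ≤0.25% DMSO), 24 h at 37 °C. Lytic Nano-Glo HiBiT luminescence, normalized to DMSO and unmodified K562 baselines; IC50 is concentration giving 50% protein abundance from four-parameter fit.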

pIC50 (MYB mRNA) | pIC50 (Target C) | pIC50 (HiBiT-tagged MYB protein) | Compound | AC50 (MYB mRNA)
> 7.00 | 5.00 to 6.00 | > 7.00 | Cc1cc2c(N3CCNCC3)ccc(C(=O)Nc3cc(F)c4nc(C)cn4c3)c2nn1 [Compound 159] | < 100 nM
> 7.00 | 5.00 to 6.00 | > 7.00 | CCNC1CCN(c2ccc(C(=O)Nc3cc(F)c4nc(C)cn4c3)c3nccnc23)CC1 [Compound 191, 8-[4-(ethylamino)piperidin-1-yl]-N-{8-fluoro-2-methylimidazo[1,2-a]pyridin-6-yl}quinoxaline-5-carboxamide] | 100 to 1000 nM
> 7.00 | 5.00 to 6.00 | > 7.00 | COc1cc2c(N3CCNCC3)ccc(C(=O)Nc3cc(F)c4nc(C)cn4c3)c2nn1 [Compound 183, N-{8-fluoro-2-methylimidazo[1,2-a]pyridin-6-yl}-3-methoxy-5-(piperazin-1-yl)cinnoline-8-carboxamide] | < 100 nM
6.00 to 7.00 | 5.00 to 6.00 | 6.00 to 7.00 | Cc1cn2cc(NC(=O)c3ccc(C4CCNC5(CC5)C4)c4nccnc34)cc(F)c2n1 (stereo not drawn) [Compound 375] | 100 to 1000 nM
> 7.00 | 5.00 to 6.00 | > 7.00 | Cc1cn2cc(NC(=O)c3ccc(N4CCN5CCC[C@@H]5C4)c4ccnnc34)cc(F)c2n1 [Compound 153] | < 100 nM
> 7.00 | < 5.00 | > 7.00 | COc1cnc2c(C(=O)Nc3cc(F)c4nc(C)cn4c3)ccc(N3CCNCC3)c2n1 [Compound 225, N-{8-fluoro-2-methylimidazo[1,2-a]pyridin-6-yl}-2-methoxy-8-(piperazin-1-yl)quinoxaline-5-carboxamide] | 100 to 1000 nM
> 7.00 | 5.00 to 6.00 | > 7.00 | CC[C@@H]1CN(c2ccc(C(=O)Nc3cc(F)c4nc(C)cn4c3)c3nnccc23)CCN1 [Compound 151] | 100 to 1000 nM
6.00 to 7.00 | 5.00 to 6.00 | 6.00 to 7.00 | COc1cc(NC(=O)c2ccc(N3CCNCC3)c3ccnnc23)cn2cc(C)nc12 [Compound 176, N-{8-methoxy-2-methylimidazo[1,2-a]pyridin-6-yl}-5-(piperazin-1-yl)cinnoline-8-carboxamide trifluoroacetate] | 100 to 1000 nM
5.00 to 6.00 | 5.00 to 6.00 | 6.00 to 7.00 | CCNC1CCN(c2ccc(C(=O)Nc3cc(F)c4nc(C)sc4c3)c3nnccc23)CC1 [Compound 221, 5-[4-(ethylamino)piperidin-1-yl]-N-(4-fluoro-2-methyl-1,3-benzothiazol-6-yl)cinnoline-8-carboxamide] | 1000 to 10000 nM
6.00 to 7.00 | 6.00 to 7.00 | 6.00 to 7.00 | Cc1cn2nc(NC(=O)c3ccc(N4CCNCC4)c4ccnnc34)cc(C)c2n1 [Compound 100] | 100 to 1000 nM
> 7.00 | 5.00 to 6.00 | > 7.00 | Cc1cn2cc(NC(=O)c3ccc(N4C[C@@H](C)N[C@@H](C)C4)c4ccnnc34)cc(F)c2n1 [Compound 161, 5-(3,5-dimethylpiperazin-1-yl)-N-{8-fluoro-2-methylimidazo[1,2-a]pyridin-6-yl}cinnoline-8-carboxamide 2,2,2-trifluoroacetate] | < 100 nM
6.00 to 7.00 | 5.00 to 6.00 | 6.00 to 7.00 | Cc1cn2cc(NC(=O)c3ccc(N4CCNCC4)c4ccnnc34)cc(C#N)c2n1 [Compound 167, N-{8-cyano-2-methylimidazo[1,2-a]pyridin-6-yl}-5-(piperazin-1-yl)cinnoline-8-carboxamide trifluoroacetic acid salt] | 100 to 1000 nM
> 7.00 | 5.00 to 6.00 | 6.00 to 7.00 | Cc1cn2cc(NC(=O)c3ccc(N4C[C@H](C)NC5(CC5)C4)c4nccnc34)cc(F)c2n1 [Compound 377] | < 100 nM
> 7.00 | 5.00 to 6.00 | > 7.00 | Cc1cn2cc(NC(=O)c3ccc(N4CC(C)(C)NC(C)(C)C4)c4nccnc34)cc(F)c2n1 [Compound 219, N-{8-fluoro-2-methylimidazo[1,2-a]pyridin-6-yl}-8-(3,3,5,5-tetramethylpiperazin-1-yl)quinoxaline-5-carboxamide] | < 100 nM
6.00 to 7.00 | 5.00 to 6.00 | 6.00 to 7.00 | Cc1cn2cc(NC(=O)c3ccc(N4CCC(NC(C)(C)C)CC4)c4ccnnc34)cc(F)c2n1 [Compound 138] | 100 to 1000 nM
5.00 to 6.00 | 5.00 to 6.00 | 6.00 to 7.00 | CN[C@@H]1CCN(c2ccc(C(=O)Nc3cc(F)c4nc(C)cn4c3)c3nc(OC)cnc23)C1 [Compound 204, (R)—N-{8-fluoro-2-methylimidazo[1,2-a]pyridin-6-yl}-3-methoxy-8-[3-(methylamino)pyrrolidin-1-yl]quinoxaline-5-carboxamide; trifluoroacetic acid] | > 10000 nM
 | 5.00 to 6.00 | > 7.00 | CNC1CCN(c2ccc(C(=O)Nc3cc(F)c4nc(C)cn4c3)c3nc(OC)cnc23)C1 (stereo not drawn) [Compound 202, N-{8-fluoro-2-methylimidazo[1,2-a]pyridin-6-yl}-3-methoxy-8-[3-(methylamino)pyrrolidin-1-yl]quinoxaline-5-carboxamide; bis(trifluoroacetic acid)] | 100 to 1000 nM
> 7.00 | 5.00 to 6.00 | > 7.00 | Cc1ccc2c(N3C[C@@H](C)N[C@@H](C)C3)ccc(C(=O)Nc3cc(F)c4nc(C)cn4c3)c2n1 [Compound 214, 5-[(3R,5S)-3,5-dimethylpiperazin-1-yl]-N-{8-fluoro-2-methylimidazo[1,2-a]pyridin-6-yl}-2-methylquinoline-8-carboxamide] | 100 to 1000 nM
6.00 to 7.00 | 5.00 to 6.00 | > 7.00 | Cc1cn2cc(NC(=O)c3ccc(N4CCC(N(C)C)C4)c4ccnnc34)cc(F)c2n1 (stereo not drawn) [Compound 134] | 100 to 1000 nM
> 7.00 | 6.00 to 7.00 | > 7.00 | COc1cnc2c(C(=O)Nc3cc(F)c4nc(C)cn4c3)ccc(N3C[C@@H](C)N[C@@H](C)C3)c2n1 [Compound 223] | < 100 nM
6.00 to 7.00 | < 5.00 | 5.00 to 6.00 | Cc1c(O)c(NC(=O)c2ccc(N3CCNCC3)c3ccnnc23)cc2cn(C)nc12 [Compound 181, N-(6-hydroxy-2,7-dimethylindazol-5-yl)-5-(piperazin-1-yl)cinnoline-8-carboxamide] | 1000 to 10000 nM
6.00 to 7.00 | < 5.00 | > 7.00 | Cc1cn2cc(NC(=O)c3ccc(C4CCN(C)CC4)c4ccnnc34)cc(F)c2n1 [Compound 140] | 100 to 1000 nM
6.00 to 7.00 | 5.00 to 6.00 | > 7.00 | Cc1cnc2c(N3CCNCC3)ccc(C(=O)Nc3cc(F)c4nc(C)cn4c3)c2n1 [Compound 197, N-{8-fluoro-2-methylimidazo[1,2-a]pyridin-6-yl}-3-methyl-8-(piperazin-1-yl)quinoxaline-5-carboxamide; trifluoroacetic acid] | 100 to 1000 nM
> 7.00 | 5.00 to 6.00 | > 7.00 | COc1cnc2c(N3CCNCC3)ccc(C(=O)Nc3cc(F)c4nc(C)cn4c3)c2n1 [Compound 207, N-{8-fluoro-2-methylimidazo[1,2-a]pyridin-6-yl}-3-methoxy-8-(piperazin-1-yl)quinoxaline-5-carboxamide; bis(trifluoroacetic acid)] | < 100 nM
6.00 to 7.00 | 5.00 to 6.00 | > 7.00 | COCCOc1cc2c(N3CCNCC3)ccc(C(=O)Nc3cc(F)c4nc(C)cn4c3)c2nn1 [Compound 199, N-{8-fluoro-2-methylimidazo[1,2-a]pyridin-6-yl}-3-(2-methoxyethoxy)-5-(piperazin-1-yl)cinnoline-8-carboxamide] | < 100 nM
> 7.00 | 6.00 to 7.00 | > 7.00 | COc1cnc2c(N3C[C@@H](C)N[C@@H](C)C3)ccc(C(=O)Nc3cc(F)c4nc(C)cn4c3)c2n1 [Compound 205, 8-[(3R,5S)-3,5-dimethylpiperazin-1-yl]-N-{8-fluoro-2-methylimidazo[1,2-a]pyridin-6-yl}-3-methoxyquinoxaline-5-carboxamide; trifluoroacetic acid] | < 100 nM
5.00 to 6.00 | < 5.00 | 5.00 to 6.00 | Cc1cn2cc(NC(=O)c3ccc(N4CCN(CCF)C5(CC5)C4)c4nccnc34)cc(F)c2n1 [Compound 370] | > 10000 nM
6.00 to 7.00 | 5.00 to 6.00 | 6.00 to 7.00 | Cc1cn2cc(NC(=O)c3ccc(N4CCNCC4)c4ccnnc34)cc(C)c2n1 [Compound 125] | 100 to 1000 nM
> 7.00 | 5.00 to 6.00 | > 7.00 | CCC1CN(c2ccc(C(=O)Nc3cc(F)c4nc(C)cn4c3)c3nnccc23)CCN1 (stereo not drawn) [Compound 130] | 100 to 1000 nM
6.00 to 7.00 | 5.00 to 6.00 | 6.00 to 7.00 | Cc1cn2cc(NC(=O)c3ccc(N4CCN(C)CC4)c4ccnnc34)cc(F)c2n1 [Compound 127] | 1000 to 10000 nM

Compound | pIC50 (MYB mRNA) | pIC50 (Target C) | pIC50 (HiBiT-tagged MYB protein) | AC50 (MYB mRNA)
Cc1cn2cc(NC(=O)c3ccc(N4C[C@H]5CC[C@@H](C4)N5)c4ccnnc34)cc(F)c2n1 [Compound 108] | 6.00 to 7.00 | < 5.00 | 6.00 to 7.00 | 100 to 1000 nM
